Results reported in patent US4983597A, “Beta-lactams as anticholesterolemic agents” (Merck & Co., Inc., priority 1989, dated 1991).

Molecular target: T1, HMG-CoA synthase (Rattus norvegicus, UniProt P17425)
T1 construct: The livers from male Charles River CD rats (225-350 g) were homogenized; from tissue; host or cells: rat liver (male Charles River CD rats), 100,000 x g supernatant, ammonium sulfate and DEAE-52 fraction
T1 sequence (P17425 1-520): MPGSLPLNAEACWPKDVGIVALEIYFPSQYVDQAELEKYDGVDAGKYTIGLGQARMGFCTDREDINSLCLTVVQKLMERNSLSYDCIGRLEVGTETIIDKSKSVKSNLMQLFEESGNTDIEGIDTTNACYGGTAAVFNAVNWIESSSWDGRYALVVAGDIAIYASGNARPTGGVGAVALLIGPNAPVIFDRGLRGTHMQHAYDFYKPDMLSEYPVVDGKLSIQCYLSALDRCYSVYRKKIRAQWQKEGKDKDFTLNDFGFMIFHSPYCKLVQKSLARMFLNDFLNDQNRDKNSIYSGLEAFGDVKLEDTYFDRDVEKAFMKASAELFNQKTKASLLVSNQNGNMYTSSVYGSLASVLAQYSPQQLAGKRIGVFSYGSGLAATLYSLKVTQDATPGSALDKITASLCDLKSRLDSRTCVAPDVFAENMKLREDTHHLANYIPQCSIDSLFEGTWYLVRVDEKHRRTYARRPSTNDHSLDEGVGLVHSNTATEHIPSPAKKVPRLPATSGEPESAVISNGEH
Assay: HMG-CoA Synthase Inhibition Assay
Type: biochemical
Details: Table VI; rat liver enzyme, 1-[14C]-acetyl-CoA incorporation
Protocol: The intrinisic HMG-CoA synthase inhibition activity of the compounds of this invention is measured by the standard in vitro protocol described below:
The livers from male Charles River CD rats (225-350 g) were homogenized in 0.25 M sucrose which was adjusted with phenylmethylsulfonylfluoride (PMSF) and N-p-tosyl-1-lysine chloromethyl ketone (TLCK) so that the final concentration of each was […], respectively. The homogenate was centrifuged at 15,000× g for 20 minutes, the supernatant filtered through a fine nylon screen to remove most of the fat layer and recentrifuged at 100,000× g for 1 hour. This supernatant was removed and 1 M potassium phosphate, dithiothreitol (DTT) and ethylene glycolbis(β-aminoethyl ether)-N,N,N',N'-tetraacetic acid (EGTA) added to give a final concentration of 0.1 M (pH 7.2), 0.5 mM and 0.1 mM, respectively. Solid ammonium sulfate was added to 50% saturation to the protein solution, it was centrifuged at 15,000× g and the supernatant discarded. This precipitated protein could be stored at -70° C. for at least one month with very little loss of activity. The ammonium sulfate precipitate was dissolved in an minimal amount of 0.06 M potassium phosphate buffer (pH 7.2) containing 0.5 mM dithiothreitol and 0.1 mM EGTA (referred to as 0.06 M phosphate buffer) and dialyzed overnight against 2 liters of the same buffer to remove the ammonium sulfate and to inactivate HMG-CoA lyase [Clinkenbeard, et al., J. Biol. Chem. 250, 3108-3116(1975)].
The dialyzed extract was added to a column of DEAE-52 (Whatman) which had been equilibrated with 0.06 M phosphate buffer (10 mg of protein in 1 ml bed volume of the resin). The DEAE-cellulose was eluted with 0.06 M phosphate buffer until the optical density at 280 nm was essentially zero. This fraction contained the β-ketoacetyl-CoA thiolase activity. The HMG-CoA synthase was eluted from the column with 0.1 M phosphate buffer (pH 7.2) containing 0.5 mM DTT and […] EGTA, and was virtually free of all thiolase activity. The protein was precipitated by the addition of ammonium sulfate to give 50% saturation. This solution was stirred for 10 minutes at 4° C. and the precipitate collected by centrifugation at 15,000 rpm for 10 minutes. The supernatant was discarded and the precipitate dissolved in a minimum of 0.06 M phosphate buffer, pH 7.2 (about 10 ml) and the enzyme stored at -80° C.
HMG-CoA Synthase Inhibition Assay
Enzyme protein (ca. 24 mg) was added to a solution containing […] Tris-HCl (pH 8.0), 11.7 μM MgCl2, 1.17 μM ethylenediaminetetraacetic acid (EDTA), 0.58 μM dithiothreitol, and the indicated concentrations of the test compound (added as a 2 mg/ml solution in dimethylsulfoxide). The incubation took place in a volume of 0.085 ml at 30° in a shaking water bath. After 5 minutes, […] of a solution containing acetoacetyl-CoA and 0.1 μCi of 1-[^14 C]-acetyl-CoA was added to give a final concentrations of 0.1 and 0.4 μM, respectively. The incubation was continued for 10 more minutes and the reaction stopped by the addition of […] of the assay mixture to 0.2 ml of 6N HCl in a glass scintillation vial. The vial was heated for 1 hour at 120° after which time 0.2 ml more of 6N HCl was again added to each vial and the heating continued for another hour. Following this, 1.0 ml of 0.9% saline was added to each vial and finally 10 ml of scintillation liquid. Radioactivity was determined in a Packard Tri-Carb liquid scintillation counter. Percent inhibition is calculated by the formula: [formula]
IC50 values were determined by plotting the log of the concentration of the test compound verses the percentage inhibition and fitting a straight line to the resulting data by using the least squares method.

Row | IC50 | Structure (SMILES)
1 | 1800 nM | Cc1ccc(S(=O)(=O)N2C(=O)C(C)(C)C2CCc2ccccc2)cc1 (stereo not shown) [Table VI a]
2 | 400 nM | Cc1ccc(S(=O)(=O)N2C(=O)C(C)(C)C2C(Cc2ccccc2)OC(=O)c2ccccc2)cc1 (stereo not shown) [Table VI b]
3 | 680 nM | Cc1ccc(S(=O)(=O)N2C(=O)C(C)(C)C2C=Cc2ccccc2)cc1 (stereo not shown) [Table VI c]
4 | 110 nM | Cc1ccc(S(=O)(=O)N2C(=O)C(C)(C)C2C2OC2c2ccccc2)cc1 (stereo not shown) [Table VI d]
